Measurements from patent US7015228B2, “4-amino-2-(2-pyridyl)pyrimidines as microbicidal active substances” (Ciba Specialty Chemicals Corporation, priority 2001, dated 2006).
In brackets after ≈: the same amount, converted by molar mass.

Experiments:
Type in all cases: cell-based
[1] = test system: Staphylococcus hominis DMS 20328; test: Minimum inhibitory concentration (MIC) in microtitre plates; settings: Table 7; 48 hours at 37° C.; MIC = ≦20% growth compared to control
Procedure, shortened: (§1)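 Compounds in DMSO, 1:2 dilution series; bacteria at 1–5×10^6 CFU/ml diluted 1:100 in CASO broth. Incubation 48 h at 37° C, growth read as OD 620 nm. MIC is the lowest concentration giving ≤20% growth relative to control; duplicates.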

[2] = test system: Escherichia coli NCTC 8196; test: as above; settings: for Minimum inhibitory concentration (MIC) E. coli: Table 7, 48 hours at 37° C., MIC = ≦20% growth compared to control; for Minimum inhibitory concentration (MIC) E. coli NCTC 8196: Table 8, * = significant inhibition of growth, but not complete inhibition
Procedure, shortened: as §1

[3] = test system: Enterococcus hirae ATCC 10541; test: Minimum inhibitory concentration (MIC), further microorganisms; settings: Table 8; * = significant inhibition of growth, but not complete inhibition
Procedure, shortened: (§2)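 Broth microdilution in DMSO, 1:2 series; inocula adjusted to 1–5×10^6 CFU/ml then diluted 1:100 in CASO broth (bacteria, yeast) or Sabouraud 2% glucose broth (mould). Incubation 48 h at 37° C or 5 days at 28° C; MIC = lowest concentration giving ≦20% growth versus control by OD 620 nm.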

[4] = test system: Staphylococcus aureus ATCC 9144; test: as above; settings: Table 8; * = significant inhibition of growth, but not complete inhibition
Procedure, shortened: as §2

[5] = test system: Micrococcus luteus ATCC 9341; test: as above; settings: Table 8; * = significant inhibition of growth, but not complete inhibition
Procedure, shortened: as §2

[6] = test system: Klebsiella pneumonia ATCC 4352; test: as above; settings: Table 8; * = significant inhibition of growth, but not complete inhibition
Procedure, shortened: as §2

[7] = test system: Trichophyton mentagrophytes ATCC 9533; test: as above; settings: Table 8; * = significant inhibition of growth, but not complete inhibition
Procedure, shortened: as §2

[8] = test system: Candida albicans ATCC 10231; test: as above; settings: Table 8; * = significant inhibition of growth, but not complete inhibition
Procedure, shortened: as §2

[9] = test system: S. epidermidis ATCC 12228; test: as above; settings: Table 8; * = significant inhibition of growth, but not complete inhibition
Procedure, shortened: as §2

[10] = test system: Salmonella choleraesuis ATCC 10708; test: as above; settings: Table 8
Procedure, shortened: as §2

[11] = test system: Aspergillus niger ATCC 6275; test: as above; settings: Table 8; * = significant inhibition of growth, but not complete inhibition
Procedure, shortened: as §2

[12] = test system: Pseudomonas aeruginosa CIP A-22; test: as above; settings: Table 8
Procedure, shortened: as §2

[13] = test system: Epidermophyton floccosum DSM 10709; test: as above; settings: Table 8; * = significant inhibition of growth, but not complete inhibition
Procedure, shortened: as §2

SMILES | Minimum inhibitory concentration (MIC) S. hominis [1] [µg/mL] | Minimum inhibitory concentration (MIC) E. coli [2] [µg/mL] | Minimum inhibitory concentration (MIC) E. coli NCTC 8196 [2] [µg/mL] | Minimum inhibitory concentration (MIC) Enterococcus hirae ATCC 10541 [3] | Minimum inhibitory concentration (MIC) Staphylococcus aureus ATCC 9144 [4] [µg/mL] | Minimum inhibitory concentration (MIC) Micrococcus luteus ATCC 9341 [5] | Minimum inhibitory concentration (MIC) Klebsiella pneumonia ATCC 4352 [6] [µg/mL] | Minimum inhibitory concentration (MIC) Trichophyton mentagrophytes ATCC 9533 [7] | Minimum inhibitory concentration (MIC) Candida albicans ATCC 10231 [8] | Minimum inhibitory concentration (MIC) S. epidermidis ATCC 12228 [9] | Minimum inhibitory concentration (MIC) Salmonella choleraesuis ATCC 10708 [10] [µg/mL] | Minimum inhibitory concentration (MIC) Aspergillus niger ATCC 6275 [11] [µg/mL] | Minimum inhibitory concentration (MIC) Pseudomonas aeruginosa CIP A-22 [12] [µg/mL] | Minimum inhibitory concentration (MIC) Epidermophyton floccosum DSM 10709 [13]
CCc1c(C)nc(-c2ccccn2)nc1NCCCCCCCCCCCCN [compound 7] | 120 (≈ 302 µM) | 120 (≈ 302 µM) | >60 | >60 µg/mL | >60 | >60 µg/mL | >60 | >30 µg/mL | >60 µg/mL | >60 µg/mL | >60 | >30 | >60 | >30 µg/mL
CCCCCCCCCCCCNc1nc(-c2ccccn2)nc(C)c1CC [compound 12] | 7.5 (≈ 19.6 µM) | 120 (≈ 314 µM) | >60 | 7.5 µg/mL (≈ 19.6 µM) | 15 (≈ 39.2 µM) | <3.75 µg/mL | >60 | 60 µg/mL (≈ 157 µM) | *60 μg/mL | *7.5 μg/mL | >60 | >60 | >60 | *30 μg/mL
Cc1cc(NCCCCCCCCCN)nc(-c2ccccn2)n1 [compound 18] | 120 (≈ 366 µM) | >120 | >60 | >60 µg/mL | >60 | >60 µg/mL | >60 | >60 µg/mL | >60 µg/mL | >60 µg/mL | >60 | >60 | >60 | >60 µg/mL
Cc1cc(NCCCCCCCCCCCCN)nc(-c2ccccn2)n1 [compound 19] | 15 (≈ 40.6 µM) | 60 (≈ 162 µM) | >60 | 60 µg/mL (≈ 162 µM) | 60 (≈ 162 µM) | 7.5 µg/mL (≈ 20.3 µM) | >60 | >60 µg/mL | 7.5 µg/mL (≈ 20.3 µM) | 60 µg/mL (≈ 162 µM) | >60 | >60 | >60 | >60 µg/mL
CCCCCCCCNc1cc(C)nc(-c2ccccn2)n1 [compound 21] | 3.75 (≈ 12.6 µM) | 60 (≈ 201 µM) | 120 (≈ 402 µM) | 120 µg/mL (≈ 402 µM) | 120 (≈ 402 µM) | 120 µg/mL (≈ 402 µM) | 120 (≈ 402 µM) | >60 µg/mL | 120 µg/mL (≈ 402 µM) | 120 µg/mL (≈ 402 µM) | >120 | >60 | >120 | >60 µg/mL
CCCCCCCCCNc1cc(C)nc(-c2ccccn2)n1 [compound 22] | 3.75 (≈ 12 µM) | 120 (≈ 384 µM) | >60 | <3.75 µg/mL | 7.5 (≈ 24 µM) | <3.75 µg/mL | >60 | 15 µg/mL (≈ 48 µM) | 15 µg/mL (≈ 48 µM) | <3.75 µg/mL | >60 | 60 (≈ 192 µM) | >60 | *7.5 μg/mL
CCCCCCCCCCCCNc1cc(C)nc(-c2ccccn2)n1 [compound 24] | 2.5 (≈ 7.05 µM) | 80 (≈ 226 µM) | >60 | *15 μg/mL | <3.75 | <3.75 µg/mL | >60 | >60 µg/mL | 30 µg/mL (≈ 84.6 µM) | 3.75 µg/mL (≈ 10.6 µM) | >60 | >60 | >60 | 60 µg/mL (≈ 169 µM)
NCCCCCCCCCNc1cc(C(F)(F)F)nc(-c2ccccn2)n1 [compound 30] | 120 (≈ 315 µM) | 120 (≈ 315 µM) | >60 | >60 µg/mL | >60 | 60 µg/mL (≈ 157 µM) | >60 | >60 µg/mL | >60 µg/mL | >60 µg/mL | >60 | >60 | >60 | >60 µg/mL
CC(C)c1cc(NCCCCCCCCCN)nc(-c2ccccn2)n1 [compound 42] | 30 (≈ 84.4 µM) | 120 (≈ 338 µM) | >60 | >60 µg/mL | 60 (≈ 169 µM) | *15 μg/mL | >60 | >60 µg/mL | >60 µg/mL | 60 µg/mL (≈ 169 µM) | >60 | >60 | >60 | >60 µg/mL
CCCCCCCCCCCCNc1cc(C(C)C)nc(-c2ccccn2)n1 [compound 48] | 3.75 (≈ 9.8 µM) | 120 (≈ 314 µM) | >60 | <3.75 µg/mL | <3.75 | <3.75 µg/mL | >60 | *60 μg/mL | *15 μg/mL | <3.75 µg/mL | >60 | >60 | >60 | *60 μg/mL
